# Read-outs that look alike come from different tables or passages of the source.
# Key:
# [1] = tested on: subjects with BCR::ABL1 positive CML; details: for SAE: Upper respiratory tract infection: Relation to study drug No
# Experimental: Open-label phase-1 study at 3 clinical centers with dose-escalation using a 3 + 3 scheme with a starting dose of 50 mg/d given continuously. A 28-days of therapy was defined as a cycle. Dose escalation for the subsequent cohort depended on the results of the safety assessment of subjects in the preceding cohort during the 28 days of therapy. Once an MTD was identified expanded cohorts of 10–15 subjects were recruited at doses of interest below the MTD. A modified accelerated dose-escalation regimen was used up to a dose of 400 mg. Dose could be increased for subjects in whom the dose was reduced because of an adverse drug reaction (ADR). Severity of adverse events was assessed using NCI CTC AE v4 [28].
# The primary objective was to determine the MTD and DLT of vamotinib during the 1st cycle of therapy. Secondary objectives were to assess the safety and tolerability of vamotinib, determine pharmacokinetics and determine efficacy by response criteria according to 2013 ELN [29].
# Safety set consists of all patients, who at least once took the study drug.
# Population for DLT evaluation consists of all patients, who received sufficient amount of the study drug during Cycle 1 for adequate DLT assessment.
# The sufficient amount of the drug is determined as the intake of ≥ 75 % of the scheduled dose during Cycle 1, except for doses missed due to the DLT.
# [2] = tested on: BaF3 cells expressing BCR::ABL1^T315I; design: method as in PMID 25394714; details: read-out: IC50 of cytotoxicity; cited from earlier work
# PDGFRa = details: kinase inhibition profiles; cited from earlier work
# EPHA7 = details: kinase inhibition profiles; cited from earlier work
# TAK1 = details: kinase inhibition profiles; cited from earlier work
# TIE2 = details: kinase inhibition profiles; cited from earlier work
# VEGFR2 = details: kinase inhibition profiles; cited from earlier work
# dogs = tested on: dogs; design: method as in PMID 25394714; details: pre-clinical toxicology; cited from earlier work
# animals = details: cited from earlier work
structure (smiles),measurement,setting,value
Cc1ccc(C(=O)Nc2ccc(CN3CCN(C)CC3)c(C(F)(F)F)c2)cc1C#Cc1nnc2ccccn12 [vamotinib],SAE: Infections and infestations,[1]; Cohort 1 50 mg N=3,0 n (%)
same,SAE: Infections and infestations,[1]; Cohort 2 100 mg N=3,0 n (%)
same,SAE: Infections and infestations,[1]; Cohort 3 200 mg N=11,0 n (%)
same,SAE: Infections and infestations,[1]; Cohort 4 400 mg N=12,0 n (%)
same,SAE: Infections and infestations,[1]; Cohort 5 500 mg N=3,0 n (%)
same,SAE: Infections and infestations,[1]; Cohort 6 600 mg N=6,2 (33.3)/2 n (%)
same,SAE: Infections and infestations,[1]; Cohort 7 750 mg N=4,0 n (%)
same,SAE: Infections and infestations,[1]; Cohort 8 300 mg N=9,3 (33.3)/3 n (%)
same,SAE: Infections and infestations,[1]; Overall N=51,5 (9.8)/5 n (%)
same,SAE: Upper respiratory tract infection,[1]; Cohort 1 (50 mg) N=3,0 n (%)
same,SAE: Upper respiratory tract infection,[1]; Cohort 2 (100 mg) N=3,0 n (%)
same,SAE: Upper respiratory tract infection,[1]; Cohort 3 (200 mg) N=11,0 n (%)
same,SAE: Upper respiratory tract infection,[1]; Cohort 4 (400 mg) N=12,0 n (%)
same,SAE: Upper respiratory tract infection,[1]; Cohort 5 (500 mg) N=3,0 n (%)
same,SAE: Upper respiratory tract infection,[1]; Cohort 6 (600 mg) N=6,1 (16.7)/1 n (%)
same,SAE: Upper respiratory tract infection,[1]; Cohort 7 (750 mg) N=4,0 n (%)
same,SAE: Upper respiratory tract infection,[1]; Cohort 8 (300 mg) N=9,0 n (%)
same,SAE: Upper respiratory tract infection,[1]; Overall N=51,1 (2.0)/1 n (%)
same,Abdominal pain,"[1]; human, in vivo",2 (4) Number of subjects (percent)
same,Abdominal pain upper,"[1]; human, in vivo",4 (8) Number of subjects (percent)
same,Alanine aminotransferase increased,"[1]; human, in vivo",2 (4) Number of subjects (percent)
same,Anal fissure,"[1]; human, in vivo",2 (4) Number of subjects (percent)
same,Blood cholesterol increased,"[1]; human, in vivo",3 (6) Number of subjects (percent)
same,Discontinued: adverse event,"[1]; human, in vivo",6
same,Discontinued: intolerable adverse drug reaction in the opinion of the investigator,"[1]; human, in vivo",2
same,Dry skin,"[1]; human, in vivo",9 (18) Number of subjects (percent)
same,Dry skin and rash,"[1]; human, in vivo",8 subjects
same,"Dry skin, Grade 3","[1]; human, in vivo",0 n
same,"Dry skin, Total","[1]; human, in vivo",9 n
same,Dyspepsia,"[1]; human, in vivo",2 (4) Number of subjects (percent)
same,Erythema,"[1]; human, in vivo",4 (8) Number of subjects (percent)
same,"Erythema, Grade 3","[1]; human, in vivo",0 n
same,"Erythema, Total","[1]; human, in vivo",4 n
same,Eye disorders,"[1]; human, in vivo",3 (6) Number of subjects (percent)
same,Gastrointestinal disorders,"[1]; human, in vivo",17 (33) Number of subjects (percent)
same,Hepatitis toxic,"[1]; human, in vivo",1 (2) Number of subjects (percent)
same,Hepato-biliary disorders,"[1]; human, in vivo",1 (2) Number of subjects (percent)
same,Leukopenia,"[1]; human, in vivo",1 (2) Number of subjects (percent)
same,Low density lipoprotein increased,"[1]; human, in vivo",2 (4) Number of subjects (percent)
same,Nausea,"[1]; human, in vivo",6 (12) Number of subjects (percent)
same,"Pruritus, Grade 3","[1]; human, in vivo",1 n
same,"Pruritus, Total","[1]; human, in vivo",5 n
same,"Psoriasiform dermatitis, Grade 3","[1]; human, in vivo",4 n
same,"Psoriasiform dermatitis, Total","[1]; human, in vivo",19 n
same,Rash,"[1]; human, in vivo",32 subjects
same,Rash papular,"[1]; human, in vivo",2 (4) Number of subjects (percent)
same,"Rash papular, Grade 3","[1]; human, in vivo",0 n
same,"Rash papular, Total","[1]; human, in vivo",2 n
same,SAE: Acute sinusitis,"[1]; human, in vivo",1 (2.0)/1 n (%)
same,SAE: Appendicitis,"[1]; human, in vivo",1 (2.0)/1 n (%)
same,SAE: Atrial fibrillation,"[1]; human, in vivo",1 (2.0)/1 n (%)
same,SAE: Cardiac disorders,"[1]; human, in vivo",1 (2.0)/1 n (%)
same,SAE: Disease progression,"[1]; human, in vivo",1 (2.0)/1 n (%)
same,SAE: General disorders and administration site conditions,"[1]; human, in vivo",1 (2.0)/1 n (%)
same,SAE: Peritonitis,"[1]; human, in vivo",1 (2.0)/1 n (%)
same,SAE: Pneumonia,"[1]; human, in vivo",1 (2.0)/1 n (%)
same,"Toxic skin eruption, Grade 3","[1]; human, in vivo",7 n
same,"Toxic skin eruption, Total","[1]; human, in vivo",9 n
same,Transaminases increased,"[1]; human, in vivo",1 (2) Number of subjects (percent)
same,dose-reduction because of rash,"[1]; human, in vivo",9 n
same,study withdrawal because of rash,"[1]; human, in vivo",6 n
same,time after which skin lesions were resolved,"[1]; human, in vivo",4–6 months
same,time to resolution of skin toxicity after discontinuation of the drug,"[1]; human, in vivo",1–2 weeks
same,DLTs,"[1]; human, in vivo, 28 days",4
same,dose-limiting toxicity (DLT),"[1]; human, in vivo, 28 days",Grade-3 psoriasis-like skin toxicity
same,dose-limiting toxicity (DLT),[1]; in vivo,rash
same,IC50,[2],75 nM
same,inhibition of PDGFRa,PDGFRa,potently inhibited
same,inhibition of EPHA7,EPHA7,not
same,inhibition of TAK1,TAK1,not
same,inhibition of TIE2,TIE2,not
same,inhibition of VEGFR2,VEGFR2,not
same,Rash,dogs,Rash was seen
same,arterial occlusive events,animals; pre-clinical studies in animals,no arterial occlusive events
same,cardio-vascular findings,animals; pre-clinical toxicology studies,No cardio-vascular findings

# Reference: article PMC12141164, “Phase-1 study of vamotinib (PF-114), a 3rd generation BCR::ABL1 tyrosine kinase-inhibitor, in chronic myeloid leukaemia” (Annals of Hematology, 2025)
